The source made the active and inactive calls. The calls are words filed in the database; no cut-off is given here.
Key:
Salmon testes DNA = test: Binding affinity to salmon sperm DNA assessed as DNA intercalation at 20 uM incubated for 20 mins by acridine orange orange dye based fluorescence polarization assay; format: nucleic-acid assay; conditions: Salmonidae
LN-229 = test: Antiproliferative activity against human LN229 cells assessed as reduction in cell viability incubated for 72 hrs by IncuCyte live-cell imaging assay; format: functional, cell-based; conditions: LN-229, 72 h
HEp-2 [1] = test: Induction of DNA damage in human Hep2 cells assessed as increase in gamma-H2AX positive cells after 24 hrs by DAPI staining based immunofluorescence analysis; format: functional, cell-based
NCI-H460 = test: Antiproliferative activity against human NCI-H460 cells assessed as reduction in cell viability incubated for 72 hrs by IncuCyte live-cell imaging assay; format: functional, cell-based; conditions: NCI-H460, 72 h
CAPAN-1 [2] = test: Antiproliferative activity against human Capan1 cells assessed as reduction in cell viability incubated for 72 hrs by IncuCyte live-cell imaging assay; format: functional, cell-based; conditions: CAPAN-1, 72 h
CAPAN-1 [3] = test: Induction of apoptosis in human Capan1 cells assessed as increase in apoptotic cells incubated for 72 hrs and measured at 3 hrs interval by IncuCyte Caspase 3/7 Green reagent based assay; format: functional, cell-based
HEp-2 [4] = test: Induction of DNA damage in human Hep2 cells assessed as gamma-H2AX positive cells at 100 uM after 24 hrs by DAPI staining based immunofluorescence analysis (reference value: 0.51%); format: functional
Tubulin (Homo sapiens) = Tubulin (Homo sapiens) (UniProt P68371+Q9H4B7+P0DPH7+P68366+Q13509+Q71U36+P04350+Q3ZCM7+P07437+P68363+Q9BQE3+Q6PEY2+Q13885+Q9BVA1+Q9BUF5); test: Inhibition of tubulin polymerization in human Hep2 cells at 100 uM after 3 hrs by DAPI-staining based fluorescence microscopic assay; format: cell-based; conditions: HEp-2
K562 = test: Antiproliferative activity against human K562 cells assessed as reduction in cell viability incubated for 72 hrs by IncuCyte live-cell imaging assay; format: functional, cell-based; conditions: K562, 72 h
PBMC [5] = test: Induction of apoptosis in human PBMC assessed as caspase 3/7 activation incubated for 72 hrs and measured at 3 hrs interval by IncuCyte Caspase 3/7 Green reagent based assay; format: cell-based
HEp-2 [6] = test: Induction of DNA damage in human Hep2 cells assessed as gamma-H2AX positive cells at 1 uM after 24 hrs by DAPI staining based immunofluorescence analysis relative to control; format: functional
HCT-116 = test: Antiproliferative activity against human HCT116 cells assessed as reduction in cell viability incubated for 72 hrs by IncuCyte live-cell imaging assay; format: functional, cell-based; conditions: HCT-116, 72 h
HEp-2 [7] = test: Induction of DNA damage in human Hep2 cells assessed as gamma-H2AX positive cells at 10 uM after 24 hrs by DAPI staining based immunofluorescence analysis relative to control; format: functional
HL-60 = test: Antiproliferative activity against human HL60 cells assessed as reduction in cell viability incubated for 72 hrs by IncuCyte live-cell imaging assay; format: functional, cell-based; conditions: HL-60, 72 h
[8] = Antiproliferative activity against human DND41 cells assessed as reduction in cell viability incubated for 72 hrs by IncuCyte live-cell imaging assay; format: functional, cell-based; conditions: DND41, 72 h
Z-138 = test: Antiproliferative activity against human Z138 cells assessed as reduction in cell viability incubated for 72 hrs by IncuCyte live-cell imaging assay; format: functional, cell-based; conditions: Z-138, 72 h
PBMC [9] = test: Induction of apoptosis in human PBMC assessed as caspase 3/7 activation at 0.0064 to 100 uM incubated for 72 hrs and measured at 3 hrs interval by IncuCyte Caspase 3/7 Green reagent based assay; format: cell-based

Activity (Salmon testes DNA)	IC50 (NCI-H460) [µM]	inhibition (Tubulin (Homo sapiens))	IC50 (K562) [µM]	IC50 (HCT-116) [µM]	IC50 (HL-60) [µM]	SMILES	IC50 (LN-229) [µM]	Activity (HEp-2 [1])	IC50 (CAPAN-1 [2]) [µM]	Activity (CAPAN-1 [3])	Activity (HEp-2 [4]) [%]	IC50 (PBMC [5]) [µM]	Activity (HEp-2 [6]) [%]	Activity (HEp-2 [7]) [%]	IC50 [8] [µM]	IC50 (Z-138) [µM]	Activity (PBMC [9])
Active	0.08	Active	0.04	0.05	0.04	Nc1ncnn2c([C@@H]3O[C@H](CO)[C@@H](O)[C@H]3O)cc(C#CC3CC3)c12	0.03	Dose-dependent effect	0.02	Active	16.22	0.1 to 0.4	3.22	5.2	0.04	0.02	
	79.4		> 100	> 100	> 100	Nc1ncnn2c([C@@H]3O[C@H](CO)[C@@H](O)[C@H]3O)cc(C#Cc3ccc(F)cc3)c12	> 100		55.4						> 100	89	
Active	0.4	Active	1.1	0.2	0.2	CCCC#Cc1cc([C@@H]2O[C@H](CO)[C@@H](O)[C@H]2O)n2ncnc(N)c12	0.04	Dose-dependent effect	0.02		9.38	0.05 to 11	1.14	0.82	0.08	0.02	
	> 100		> 100	> 100	48.4	Cc1ccccc1-c1cc([C@@H]2O[C@H](CO)[C@@H](O)[C@H]2O)n2ncnc(N)c12	> 100		97.5						94.1	66	
	> 100		> 100	> 100	> 100	Nc1ncnn2c([C@@H]3O[C@H](CO)[C@@H](O)[C@H]3O)cc(-c3ccccc3F)c12	> 100		> 100						> 100	95.3	
	55.5		> 100	42.5	68.3	Nc1ncnn2c([C@@H]3O[C@H](CO)[C@@H](O)[C@H]3O)cc(-c3ccc(F)cc3)c12	65.6		65.6						39.3	> 100	
Active	1.5	Active	2.1	1.4	0.5	Nc1ncnn2c([C@@H]3O[C@H](CO)[C@@H](O)[C@H]3O)cc(-c3ccoc3)c12	1	Dose-dependent effect	0.9	Active	3.74		0.13	1.54	0.1	0.3	Non-Toxic
	38.5		> 100	46.9	> 100	Nc1ncnn2c([C@@H]3O[C@H](CO)[C@@H](O)[C@H]3O)cc(C#Cc3ccccc3)c12	88		37.7						62.6	41.4	
	0.004		0.009	0.007	0.05	CC(=O)O[C@@]12CO[C@@H]1C[C@H](O)[C@@]1(C)C(=O)[C@H](O)C3=C(C)[C@@H](OC(=O)[C@H](O)[C@@H](NC(=O)OC(C)(C)C)c4ccccc4)C[C@@](O)([C@@H](OC(=O)c4ccccc4)[C@H]21)C3(C)C [DOCETAXEL ANHYDROUS]	0.002		0.025						0.005	0.004	
	93.3		69.7	59.5	99.3	Nc1ncnn2c([C@@H]3O[C@H](CO)[C@@H](O)[C@H]3O)cc(-c3ccc(F)cc3F)c12	43.5		50.9						68.2	59.1	
	45.9		47.8	59.3	37.9	Nc1ncnn2c([C@@H]3O[C@H](CO)[C@@H](O)[C@H]3O)cc(-c3ccc(Cl)cc3)c12	32.6		56.7						35.1	40.2	
	35.6		66.4	45.2	37.3	Nc1ncnn2c([C@@H]3O[C@H](CO)[C@@H](O)[C@H]3O)cc(-c3ccsc3)c12	57.7		56.2						85.4	43.5	
	> 100		> 100	> 100	> 100	Nc1ncnn2c([C@@H]3O[C@H](CO)[C@@H](O)[C@H]3O)cc(-c3ccccc3Cl)c12	> 100		54.9						78.5	76.1	
	26.6		> 100	65.5	> 100	Nc1ncnn2c([C@@H]3O[C@H](CO)[C@@H](O)[C@H]3O)cc(C#Cc3cccs3)c12	> 100		32						33.4	50.1	
	69.3		76.4	47.1	> 100	COc1ccc(-c2cc([C@@H]3O[C@H](CO)[C@@H](O)[C@H]3O)n3ncnc(N)c23)cc1	40.3		43.9						41.7	62.6	
	> 100		> 100	82.6	> 100	Nc1ncnn2c([C@@H]3O[C@H](CO)[C@@H](O)[C@H]3O)cc(-c3ccccc3)c12	75.1		65.2						> 100	> 100	
						COc1cc([C@@H]2c3cc4c(cc3[C@@H](O[C@@H]3O[C@@H]5CO[C@@H](C)O[C@H]5[C@H](O)[C@H]3O)[C@H]3COC(=O)[C@H]23)OCO4)cc(OC)c1O [ETOPOSIDE]					89.31		1.66	89.89			
Active	1.7	Active	2.4	2.9	0.4	CCCCC#Cc1cc([C@@H]2O[C@H](CO)[C@@H](O)[C@H]2O)n2ncnc(N)c12	1	Dose-dependent effect	1	Active	1.57		0.31	0.35	0.4	0.2	Non-Toxic
Active	3.7	Active	3.1	4.8	2	Nc1ncnn2c([C@@H]3O[C@H](CO)[C@@H](O)[C@H]3O)cc(/C=C/c3ccccc3)c12	3.9	Dose-dependent effect	2.6		0.22		0.05	0	1.7	1.3	Non-Toxic

SMILES	Activity (Salmon testes DNA)	IC50 (NCI-H460) [µM]	inhibition (Tubulin (Homo sapiens))	IC50 (K562) [µM]	IC50 (HCT-116) [µM]	IC50 (HL-60) [µM]	IC50 (LN-229) [µM]	Activity (HEp-2 [1])	IC50 (CAPAN-1 [2]) [µM]	Activity (CAPAN-1 [3])	Activity (HEp-2 [4]) [%]	IC50 (PBMC [5]) [µM]	Activity (HEp-2 [6]) [%]	Activity (HEp-2 [7]) [%]	IC50 [8] [µM]	IC50 (Z-138) [µM]	Activity (PBMC [9])
CN[C@@H]1C[C@H]2O[C@@](C)([C@@H]1OC)n1c3ccccc3c3c4c(c5c6ccccc6n2c5c31)C(=O)NC4 [STAUROSPORINE]		0.06		0.04	0.04	0.04											

Reference: ChEMBL document CHEMBL4622990, “Synthesis and Antitumor Activity of C-7-Alkynylated and Arylated Pyrrolotriazine C-Ribonucleosides” (ACS Med Chem Lett, 2020)
